In patent US4067997A, “Synergistic microbecidal composition and method” (priority 1976, dated 1978):

Assays:
Streptococcus mutans = assay: MIC on mass basis (Example V procedure); assay type: cell-based, Streptococcus mutans (ATCC 10441)
Procedure: (§1) The essential procedure of Example I was followed with a series of phenolic compounds, with the exception that the test method was conducted on a mass (μg/ml) basis rather than a molecular (mol/ml) basis of the foregoing tests, since the long established phenol-coeffecient test is on a mass rather than molecular basis. Additionally, a different but closely related group of organisms were used in this test, in order to give a complete representative span on gram-negative, gram-positive and fungus organisms. Additionally, the phenolic derivatives chosen for test purposes include a number of derivatives which are presently accepted by the FDA as food-grade phenolic microbicides.
The same procedure of Example V was repeated but with combinations of mono-laurin (GML).
The procedure of Example V was repeated with combinations of glycerol mono-laurin (GML) and ethylenediamine tetraacetic acid (EDTA) as the calcium salt and in combination with BHA.

Corynebacterium sp. = assay: MIC on mass basis (Example V procedure); assay type: cell-based
Procedure: as §1

[1] = test system: Streptococcus faecalis (Group D); assay: MIC on mass basis (Example V procedure); assay type: cell-based
Procedure: as §1

Streptococcus pyogenes = assay: MIC on mass basis (Example V procedure); assay type: cell-based
Procedure: as §1

[2] = 60 minute reading, colony forming units (Examples VIII, X, XII); assay type: cell-based; details: Table 18; base line 2.2 × 10^6CFU
Procedure: The results of this experiment are recorded in the 60 minute reading.

Which MIC (Streptococcus mutans; Table 13, Streptococcus mutans) does the source give for `CCCCCCCCCCCC(=O)OCC(O)CO` (stereo not drawn) [GML, glycerol mono-laurin] here?
The MIC was 31.25 µg/mL.

What about the MIC (Streptococcus mutans; Table 14, Streptococcus mutans) of the same compound?
The MIC was 31.25 µg/mL.

And the MIC (Corynebacterium sp.; Table 16, Corynebacterium sp., no unit in table)?
The MIC was 10.

What about the “MIC of GML” value (Corynebacterium sp.; Table 17, EDTA 0) of the same compound?
The value was less than 10 µg/mL.

What about the “MIC of GML” value (Corynebacterium sp.; Table 17, EDTA 125) of the same compound?
The value was less than 10 µg/mL.

What about the “MIC of GML” value (Corynebacterium sp.; Table 17, EDTA 250) of the same compound?
The value was less than 10 µg/mL.

And the “MIC of GML” value (Corynebacterium sp.; Table 17, EDTA 500)?
Its value is less than 10 µg/mL.

And the “MIC of GML” value (Corynebacterium sp.; Table 17, EDTA 1,000)?
Its value is less than 10 µg/mL.

And the “MIC of GML” value (Corynebacterium sp.; Table 17, EDTA 5,000)?
Its value is less than 10 µg/mL.

What about the “MIC of GML” value (Corynebacterium sp.; Table 17, EDTA 10,000) of the same compound?
Its value is less than 10 µg/mL.

What about the MIC ([1]; Table 16, Streptococcus faecalis (Group D), no unit in table) of the same compound?
Its MIC is > 1,000.

What about the “MIC of GML” value ([1]; Table 17, EDTA 0) of the same compound?
Its value is > 10,000 μg/ml.

And the “MIC of GML” value ([1]; Table 17, EDTA 125)?
The value was > 10,000 μg/ml.

What about the “MIC of GML” value ([1]; Table 17, EDTA 250) of the same compound?
The value was > 10,000 μg/ml.

What about the “MIC of GML” value ([1]; Table 17, EDTA 500) of the same compound?
Its value is > 10,000 μg/ml.

And the “MIC of GML” value ([1]; Table 17, EDTA 1,000)?
The value was 1,000 μg/ml.

What about the “MIC of GML” value ([1]; Table 17, EDTA 5,000) of the same compound?
The value was less than 10 µg/mL.

And the “MIC of GML” value ([1]; Table 17, EDTA 10,000)?
Its value is less than 10 µg/mL.

What about the MIC (Streptococcus pyogenes; Table 16, Streptococcus pyogenes, no unit in table) of the same compound?
The MIC was 10.

What about the “MIC of GML” value (Streptococcus pyogenes; Table 17, EDTA 0) of the same compound?
The value was less than 10 µg/mL.

What about the “MIC of GML” value (Streptococcus pyogenes; Table 17, EDTA 125) of the same compound?
Its value is less than 10 µg/mL.

What about the “MIC of GML” value (Streptococcus pyogenes; Table 17, EDTA 250) of the same compound?
Its value is less than 10 µg/mL.

What about the “MIC of GML” value (Streptococcus pyogenes; Table 17, EDTA 500) of the same compound?
Its value is less than 10 µg/mL.

What about the “MIC of GML” value (Streptococcus pyogenes; Table 17, EDTA 1,000) of the same compound?
Its value is less than 10 µg/mL.

What about the “MIC of GML” value (Streptococcus pyogenes; Table 17, EDTA 5,000) of the same compound?
Its value is less than 10 µg/mL.

What about the “MIC of GML” value (Streptococcus pyogenes; Table 17, EDTA 10,000) of the same compound?
Its value is less than 10 µg/mL.

And the “60 Minute Reading” value [2]?
The value was 9.7 × 10^5 CFU.
